# Patent publication US8318769B2, “Substituted sulfonamide compounds” (Gruenethal GmbH, priority 2008, dated 2012)
# Legend:
# [1] = biological target: T1, human bradykinin 1 receptor (B1R) (Homo sapiens, UniProt P46663); experiment: FLIPR Ca2+ assay, B1R antagonism, human; format: cell-based; settings: 10 μM test substance, CHO K1 cells with human B1R gene (hB1R cells), Lys-Des-Arg9-bradykinin at EC80, % inhibition compared with the maximum achievable inhibition; for inhibition at 10 µM: read-out: B1R antagonism, human [10 μM] % inhibition
# T1 construct: expressed in transfected cells
# T1 sequence (P46663 1-353): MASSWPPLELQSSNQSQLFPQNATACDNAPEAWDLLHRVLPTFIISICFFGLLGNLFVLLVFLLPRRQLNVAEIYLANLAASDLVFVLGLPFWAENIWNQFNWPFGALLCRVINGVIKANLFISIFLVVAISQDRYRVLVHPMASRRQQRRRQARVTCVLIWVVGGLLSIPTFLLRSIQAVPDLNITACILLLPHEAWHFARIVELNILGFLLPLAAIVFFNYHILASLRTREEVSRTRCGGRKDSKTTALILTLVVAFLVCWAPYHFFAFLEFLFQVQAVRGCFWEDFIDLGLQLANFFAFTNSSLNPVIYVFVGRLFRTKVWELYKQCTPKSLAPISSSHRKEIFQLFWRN
# Method: (§1) The agonistic or antagonistic action of substances can be quantified on the bradykinin 1 receptor (B1R) of the human and rat species with ectopically expressing cell lines (CHO K1 cells) and with the aid of a Ca^2+-sensitive dyestuff (Fluo-4) in a fluorescent imaging plate reader (FLIPR). The figure in % activation is based on the Ca^2+ signal after addition of Lys-Des-Arg^9-bradykinin (0.5 nM) or Des-Arg^9-bradykinin (100 nM). Antagonists lead to a suppression of the Ca^2+ inflow after addition of the agonist. % inhibition compared with the maximum achievable inhibition is stated.
# (§2) The agonistic or antagonistic action of substances can be determined on the bradykinin 1 receptor (B1R) of the human and rat species with the following assay. In accordance with this assay, the Ca^2+ inflow through the channel is quantified with the aid of a Ca^2+-sensitive dyestuff (type Fluo-4, Molecular Probes Europe BV, Leiden, Holland) in a fluorescent imaging plate reader (FLIPR, Molecular Devices, Sunnyvale, USA).
# (§3) Chinese hamster ovary cells (CHO K1 cells) transfected stably with the human B1R gene (hB1R cells) or the B1R gene of the rat (rB1R cells) are used. For functional studies, these cells are plated out on black 96-well plates with a clear base (BD Biosciences, Heidelberg, Germany or Greiner, Frickenhausen, Germany) in a density of 20,000-35,000 cells/well. The cells are left overnight at 37° C. and 5% CO2 in culture medium (hB1R cells: Nutrient Mixture Ham's F12, Gibco Invitrogen GmbH, Karlsruhe, Germany or DMEM, Sigma-Aldrich, Taufkirchen, Germany; rB1R cells: D-MEM/F12, Gibco Invitrogen GmbH, Karlsruhe, Germany) with 10 vol. % FBS (foetal bovine serum, Gibco Invitrogen GmbH, Karlsruhe, Germany or PAN Biotech GmbH, Aidenbach, Germany).
# (§4) On the following day, the cells are loaded for 60 min at 37° C. with 2.13 μM Fluo-4 (Molecular Probes Europe BV, Leiden, Holland) in HBSS buffer (Hank's buffered saline solution, Gibco Invitrogen GmbH, Karlsruhe, Germany) with 2.5 mM probenecid (Sigma-Aldrich, Taufkirchen, Germany) and 10 mM HEPES (Sigma-Aldrich, Taufkirchen, Germany). The plates are then washed 2× with HBSS buffer, and HBSS buffer which additionally contains 0.1% BSA (bovine serum albumin; Sigma-Aldrich, Taufkirchen, Germany), 5.6 mM glucose and 0.05% gelatine (Merck KGaA, Darmstadt, Germany) is added. After a further incubation of 20 minutes at room temperature, the plates are inserted into the FLIPR for the Ca^2+ measurement.
# (§5) Alternatively, the plates are washed with buffer A (15 mM HEPES, 80 mM NaCl, 5 mM KCl, 1.2 mM CaCl2, 0.7 mM MgSO4, 2 g/l glucose, 2.5 mM probenecid), buffer A is added and the plates are loaded with 2.5 μM Fluo-4 and 0.025% Pluronic F127 (Sigma-Aldrich, Taufkirchen, Germany). Thereafter, the cells are washed 2× with buffer A and incubated for 30 minutes with buffer A, which additionally contains 0.05% BSA and 0.05% gelatine, at room temperature and thereafter inserted into the FLIPR for the Ca^2+ measurement.
# (§6) The Ca^2+-dependent fluorescence is measured here before and after addition of substances (λex=488 nm, λem=540 nm). Quantification is by measurement of the highest fluorescence intensity (FC, fluorescence counts) over time.
# (§7) The FLIPR protocol consists of 2 additions of substance. Test substances (10 μM) are first pipetted on to the cells and the Ca^2+ inflow is compared with the control (hB1R: Lys-Des-Arg^9-bradykinin >=50 nM; rB1R: Des-Arg^9-bradykinin 10 μM). This gives the figure in % activation based on the Ca^2+ signal after addition of Lys-Des-Arg^9-bradykinin (>=50 nM) or Des-Arg^9-bradykinin (10 μM).
# (§8) After incubation for 10-20 minutes, Lys-Des-Arg^9-bradykinin (hB1R) or Des-Arg^9-bradykinin (rB1R) in the concentration of the EC80 is applied and the inflow of Ca^2+ is likewise determined. Antagonists lead to a suppression of the Ca^2+ inflow. % inhibition compared with the maximum achievable inhibition is calculated. […]
# [2] = biological target: T2, bradykinin 1 receptor (B1R) of the rat (Rattus norvegicus, UniProt P97583); experiment: FLIPR Ca2+ assay, B1R antagonism, rat; format: cell-based; settings: CHO K1 cells with rat B1R gene (rB1R cells), Des-Arg9-bradykinin at EC80, % inhibition compared with the maximum achievable inhibition; for inhibition at 10 µM: CHO-K1, 10 μM test substance, read-out: B1R antagonism, rat [10 μM] % inhibition; for B1R antagonism, rat [10 μM] % inhibition: 10 μM test substance
# T2 construct: expressed in transfected cells
# T2 sequence (P97583 1-337): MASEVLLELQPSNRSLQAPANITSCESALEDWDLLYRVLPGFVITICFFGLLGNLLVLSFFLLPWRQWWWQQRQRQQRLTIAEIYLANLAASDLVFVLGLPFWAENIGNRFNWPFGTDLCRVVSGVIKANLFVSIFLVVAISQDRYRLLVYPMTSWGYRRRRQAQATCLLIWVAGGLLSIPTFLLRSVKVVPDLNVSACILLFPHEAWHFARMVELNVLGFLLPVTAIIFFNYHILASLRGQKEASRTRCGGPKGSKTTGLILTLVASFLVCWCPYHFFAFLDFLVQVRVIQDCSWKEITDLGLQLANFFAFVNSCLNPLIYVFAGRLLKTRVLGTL
# Method: as §1, §2, §3, §4, §5, §6, §7, §8
Compound,inhibition at 10 µM [1] [%],inhibition at 10 µM [2] [%],"B1R antagonism, human [10 μM] % inhibition [1] [%]","B1R antagonism, rat [10 μM] % inhibition [2] [%]","B1R antagonism, rat [10 μM] % inhibition ([2]; 10 µM) [%]"
"COc1cc(C)c(S(=O)(=O)N(CCOCC(=O)N2CCC(OCCN3CCCC3)(c3cccnc3)CC2)C(c2ccccc2)c2ccccc2)c(C)c1 [Example 6, N-benzhydryl-4-methoxy-2,6-dimethyl-N-(2-(2-oxo-2-(4-(pyridin-3-yl)-4-(2-(pyrrolidin-1-yl)ethoxy)piperidin-1-yl)ethoxy)ethyl)benzenesulfonamide]",98,100,–,–,–
"COc1cc(C)c(S(=O)(=O)N(C)CCOCC(=O)N2CCC(OCCCN3CCN(C)CC3)(c3cccnc3)CC2)c(C)c1 [Example 34, 4-methoxy-N,2,6-trimethyl-N-(2-(2-(4-(3-(4-methylpiperazin-1-yl)propoxy)-4-(pyridin-3-yl)piperidin-1-yl)-2-oxoethoxy)ethyl)benzenesulfonamide]",99,100,–,–,–
"O=C(COCC1CCc2ccccc2N1S(=O)(=O)c1ccc(Cl)c(Cl)c1)N1CCC(OCCCN2CCCC2)(c2cccnc2)CC1 (stereo not shown) [Example 45, 2-((1-(3,4-dichlorophenylsulfonyl)-1,2,3,4-tetrahydroquinolin-2-yl)methoxy)-1-(4-(pyridin-3-yl)-4-(3-(pyrrolidin-1-yl)propoxy)piperidin-1-yl)ethanone]",76,103,–,–,–
"Cc1cccc(Cl)c1S(=O)(=O)N(CCOCC(=O)N1CCC(OCC[N+]2([O-])CCCC2)(c2cccc(F)c2)CC1)C1CC1 [Example 53, 2-chloro-N-cyclopropyl-N-[2-[2-[4-(3-fluorophenyl)-4-[2-(1-oxido-pyrrolidin-1-ium-1-yl)-ethoxy]-piperidin-1-yl]-2-oxo-ethoxy]-ethyl]-6-methyl-benzenesulfonic acid amide]",100,102,–,–,–
"CN1CCN(CCCOC2(c3cccnc3)CCN(C(=O)CC(NS(=O)(=O)c3ccc4ccccc4c3)c3ccccc3)CC2)CC1 (stereo not shown) [Example 39, N-(3-(4-(3-(4-methylpiperazin-1-yl)propoxy)-4-(pyridin-3-yl)piperidin-1-yl)-3-oxo-1-phenylpropyl)naphthalene-2-sulfonamide]",50,98,–,–,–
"O=C(COCC1CCc2ccccc2N1S(=O)(=O)c1ccc(Cl)c(Cl)c1)N1CCC(OCCN2CCCCC2)(c2cccnc2)CC1 (stereo not shown) [Example 16, 2-((1-(3,4-dichlorophenylsulfonyl)-1,2,3,4-tetrahydroquinolin-2-yl)methoxy)-1-(4-(2-(piperidin-1-yl)ethoxy)-4-(pyridin-3-yl)piperidin-1-yl)ethanone]",103,87,–,–,–
"O=C(COC[C@@H]1CCCCN1S(=O)(=O)c1ccccc1C(F)(F)F)N1CCC(OCCN2CCCC2)(c2cccnc2)CC1 [Example 47, (S)-1-(4-(pyridin-3-yl)-4-(2-(pyrrolidin-1-yl)ethoxy)piperidin-1-yl)-2-((1-(2-(trifluoromethyl)phenylsulfonyl)piperidin-2-yl)methoxy)ethanone]",100,101,–,–,–
"COc1cc(C)c(S(=O)(=O)N2CCCCC2COCC(=O)N2CCC(OCCCN3CCN(C)CC3)(c3cccnc3)CC2)c(C)c1 (stereo not shown) [Example 33, 2-((1-(4-methoxy-2,6-dimethylphenylsulfonyl)piperidin-2-yl)methoxy)-1-(4-(3-(4-methylpiperazin-1-yl)propoxy)-4-(pyridin-3-yl)piperidin-1-yl)ethanone]",98,103,–,–,–
"COc1cc(C)c(S(=O)(=O)N2CCCCC2CCCC(=O)N2CCC(OCCN3CCCC3)(c3cccnc3)CC2)c(C)c1 (stereo not shown) [Example 88, 4-[1-[(4-methoxy-2,6-dimethyl-phenyl)sulfonyl]-piperidin-2-yl]-1-[4-pyridin-3-yl-4-(2-pyrrolidin-1-yl-ethoxy)-piperidin-1-yl]-butan-1-one]",–,–,100,–,–

# Now from value to compound:
inhibition at 10 µM [1] [%],inhibition at 10 µM [2] [%],"B1R antagonism, human [10 μM] % inhibition [1] [%]","B1R antagonism, rat [10 μM] % inhibition [2] [%]","B1R antagonism, rat [10 μM] % inhibition ([2]; 10 µM) [%]",Compound
–,–,100,103,–,"3-[[1-[(4-methoxy-2,6-dimethyl-phenyl)sulfonyl]-piperidin-2-yl]-methoxy]-1-[4-pyridin-3-yl-4-(2-pyrrolidin-1-yl-ethoxy)-piperidin-1-yl]-propan-1-one [Example 120]"
100,102,–,–,–,"COc1cc(C)c(S(=O)(=O)N2CCCCC2CCCC(=O)N2CCC(OCCN3CCCC3)(c3ccncc3)CC2)c(C)c1 (stereo not shown) [Example 90, 4-[1-[(4-methoxy-2,6-dimethyl-phenyl)sulfonyl]-piperidin-2-yl]-1-[4-pyridin-4-yl-4-(2-pyrrolidin-1-yl-ethoxy)-piperidin-1-yl]-butan-1-one]"
99,98,–,–,–,"COc1cc(C)c(S(=O)(=O)N2c3ccccc3CCC2COCC(=O)N2CCC(OCCN3CCCC3)(c3cccc(F)c3)CC2)c(C)c1 (stereo not shown) [Example 102, 1-[4-(3-fluorophenyl)-4-(2-pyrrolidin-1-yl-ethoxy)-piperidin-1-yl]-2-[[1-[(4-methoxy-2,6-dimethyl-phenyl)sulfonyl]-1,2,3,4-tetrahydro-quinolin-2-yl]-methoxy]-ethanone]"
–,–,100,–,100,"COc1cc(C)c(S(=O)(=O)N2CCCCC2COCCC(=O)N2CCC(OCCN3CCCC3)(c3cccc(F)c3)CC2)c(C)c1 (stereo not shown) [Example 122, 1-[4-(3-fluorophenyl)-4-(2-pyrrolidin-1-yl-ethoxy)-piperidin-1-yl]-3-[[1-[(4-methoxy-2,6-dimethyl-phenyl)sulfonyl]-piperidin-2-yl]-methoxy]-propan-1-one]"
